Holding throughout (format): biochemical
Experiment [1] deals with T1, Cathepsin V (Homo sapiens, UniProt O60911).
T1 construct: made in house; host or cells: Pichia pastoris
Description: Determination of relative inhibition, substrate Z-Phe-Arg-AMC. As to conditions: inhibitor 50 μM; substrate 2 μM; mean ± SD (n = 2); read-out: Cathepsin V Ri (%) relative inhibition. The protocol: (§1) Human recombinant cathepsin V was expressed in Pichia Pastoris, and human recombinant cathepsin L was expressed in Escherichia coli, as reported, [51]. To determine the activities of cathepsins V and L, 100 mM acetate buffer (pH 5.5), containing 0.1 % PEG 8000 (Sigma-Aldrich, St. Louis, MO, USA), 5 mM cysteine, and 1.5 mM EDTA was used. Prior to the assay, the enzyme was activated in the assay buffer for 5 min at 37 °C.
(§2) The effect of the inhibitors on cathepsin V and L activity was determined using the substrate Z-Phe-Arg-AMC (Bachem, Bubendorf, Switzerland). The reaction was initiated by adding 90 μL of the activated enzyme (final concentration 2.5 ng/mL and 0.02 nM for cathepsins V and L, respectively) to the wells of a black microtiter plate containing 5 μL of substrate (with a final concentration 2 μM) and 5 μL of inhibitor (with a final concentration of 50 μM). The formation of fluorescent degradation products during the reaction was monitored continuously at 460 nm ± 10 nm with excitation at 380 nm ± 20 nm at 37 °C on a Tecan Infinite M1000 (Mannedorf, Switzerland) spectrofluorometer. All assay mixtures contained 5 % (v/v) DMSO. To prevent false-positive inhibition due to the formation of compound aggregates, 0.01 % Triton X-100 was used. All measurements were performed in triplicate and repeated at least twice. Relative inhibition was calculated using the following equation: relative inhibition (%) = 100(1- vi/vo), where vi and vo denote the reaction velocities in the presence and absence of the inhibitor, respectively.

In experiment [2] the target is T2, human recombinant cathepsin L (Homo sapiens, UniProt P07711).
T2 construct: made in house; host or cells: Escherichia coli
The experiment is described as above. The note with it: inhibitor 50 μM; substrate 2 μM; mean ± SD (n = 2); read-out: Cathepsin L Ri (%) relative inhibition. The protocol:
as §1, §2

Experiment [3] addresses T1, Cathepsin V. Description: Determination of Ki values and mode of inhibition. As to conditions: for fold lower inhibition constant for cathepsin V than cathepsin L: selectivity cathepsin V vs cathepsin L. The protocol:
as §1
(§3) Inhibition constants were calculated from reaction velocities measured at three substrate concentrations (0.5, 1, and 4 μM) in the presence of inhibitors at seven concentrations (0, 20, 40, 60, 80, 100, and 200 µM). The reaction was initiated by adding 90 μL of enzyme at final concentrations of 2.5 ng/mL and 0.02 nM for cathepsins V and L, respectively, to the wells of a black microtiter plate containing 5 μL of substrate and 5 μL of inhibitor. To evaluate cathepsin V and L activity, the substrate Z-Phe-Arg-AMC was used. The formation of the fluorescent degradation products was monitored as described above. All assay mixtures contained 5 % (v/v) DMSO. All measurements were performed in duplicates and repeated at least twice. The SigmaPlot® 12, Enzyme Kinetics Module™ 1.3 was used to calculate Ki values.

The target of experiment [4] is T2, human recombinant cathepsin L. Description: Determination of Ki values and mode of inhibition. The protocol: as §1, §3
Experiment [5] concerns the target T1, Cathepsin V. Description: Determination of binding reversibility (dilution method). The note with it: inhibitor 100 μM, cathepsin V 500 ng/ml. The protocol:
Binding reversibility was determined according to the dilution method, which measures the recovery of enzymatic activity after rapid dilution of the enzyme-inhibitor complex. Cathepsin V (500 ng/ml) was incubated in the assay buffer with the inhibitor (100 μM). Half of the reaction mixture was immediately diluted 100-fold with the assay buffer and added to the wells of a black microplate containing 5 μL of substrate (at a final concentration of 2 μM), and the activity was measured. The other half of the reaction mixture was incubated for 2 h before it was diluted 100-fold, and then the activity was measured. The assay was performed in triplicates and repeated at least two times.

Structures are written as SMILES. Entries after “also recorded” stand apart in the source; their conditions may differ. Marks after values point to notes of the source that are not given here.

T1 sequence (O60911 114-334): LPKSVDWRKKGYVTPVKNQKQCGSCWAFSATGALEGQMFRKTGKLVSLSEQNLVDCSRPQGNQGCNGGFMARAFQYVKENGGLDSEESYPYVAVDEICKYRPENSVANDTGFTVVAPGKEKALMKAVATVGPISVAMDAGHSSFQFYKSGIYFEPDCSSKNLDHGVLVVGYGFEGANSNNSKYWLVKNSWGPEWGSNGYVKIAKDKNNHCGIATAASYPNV
T2 sequence (P07711 114-333): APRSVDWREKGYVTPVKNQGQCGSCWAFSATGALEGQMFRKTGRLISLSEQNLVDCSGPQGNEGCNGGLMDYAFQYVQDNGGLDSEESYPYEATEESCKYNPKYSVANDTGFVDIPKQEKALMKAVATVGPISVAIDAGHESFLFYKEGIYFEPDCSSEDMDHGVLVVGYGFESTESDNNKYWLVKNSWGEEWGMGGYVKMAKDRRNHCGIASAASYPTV

As a reminder, the inhibition is the drop in the measured response relative to a control, in per cent. A word on the Ki: it is the dissociation constant of the complex between target and ligand, obtained from inhibition or displacement. In the case of `CC(=O)c1cccc(NC(=O)c2cnc3sccn3c2=O)c1` [Compound 4, N-(3-acetylphenyl)-5-oxo-5H-thiazolo[3,2-a]pyrimidine-6-carboxamide], the inhibition at 50 µM on Cathepsin V [1] is over 20%; in experiment [2], 23.5 ± 2.2%. Further, at Cathepsin V [3], the “mode of inhibition of cathepsin V” value was “competitive”. The inhibition constant (Ki) on Cathepsin V [3] (mean ± SD (n = 2)) stood at 352 ± 78.6 µM; in experiment [4] (mean ± SD (n = 2)), 84.3 ± 4 µM. Further, in experiment [4], the “mode of inhibition of cathepsin L” value is recorded as “competitive”. Besides, the “binding reversibility: cathepsin V activity after 2 h incubation and 100-fold rapid dilution” value at Cathepsin V [5] was “reversible inhibition”.

Consider `O=C(Nc1nc2c(s1)CN(Cc1ccccc1)CC2)c1cccc2ccccc12` [Compound 5, N-(5-benzyl-4,5,6,7-tetrahydrothiazolo[5,4-c]pyridin-2-yl)-1-naphthamide], for which the inhibition at 50 µM on Cathepsin V [1] is -5.8 ± 7%. The inhibition at 50 µM in experiment [2] was 30.3 ± 5.5%. In addition, the “Cathepsin V Ki (µM)” value on Cathepsin V [3] (mean ± SD (n = 2)) is on record as “no inhibition”. In addition, the “mode of inhibition of cathepsin L” value in experiment [4] is given as “uncompetitive”. Also, in experiment [4] (mean ± SD (n = 2)), the “Cathepsin L Ki” value is on record as 11.2 ± 0.1 µM, the “Cathepsin L Ki′” value is given as 11.2 ± 0.1 µM and the “Cathepsin L Ki′ (µM)” value is given as 11.2 ± 0.1^e µM. The “binding reversibility: cathepsin V activity after 2 h incubation and 100-fold rapid dilution” value at Cathepsin V [5] is “reversible inhibition; also recorded: restored”.

As to `O=C(NCC1CCN(C(=O)Oc2ccccc2)CC1)NC(c1ccccc1)c1ccccc1` [Compound 42, Phenyl 4-((3-benzhydrylureido)methyl)piperidine-1-carboxylate], on Cathepsin V [1], the inhibition at 50 µM was 21.6 ± 4.6%. Besides, the inhibition at 50 µM in experiment [2] was 3.5 ± 3.1%. Further, on Cathepsin V [3], the “mode of inhibition of cathepsin V” value was “noncompetitive” and the “fold lower inhibition constant for cathepsin V than cathepsin L” value was “more than 2 fold”. Also, at Cathepsin V [3] (mean ± SD (n = 2)), the “Cathepsin V Ki′ (µM)” value is reported as 155.8 ± 3.4^e µM and the Ki came to 156 ± 3.4 µM. For the same compound, in experiment [4], the “mode of inhibition of cathepsin L” value is given as “noncompetitive”. For the same compound, in experiment [4] (mean ± SD (n = 2)), the “Cathepsin L Ki′ (µM)” value is recorded as 319.2 ± 28.6^e µM and the Ki came to 319 ± 28.6 µM. On Cathepsin V [5], the “binding reversibility: cathepsin V activity after 2 h incubation and 100-fold rapid dilution” value is reported as “reversible; also recorded: restored”.

With `COc1ccc(NC(C)=O)cc1NC(=O)c1n[nH]c2ccccc12` [Compound 6], the results for the inhibition at 50 µM (at Cathepsin V [1]; in experiment [2]) were over 20% and 40.3 ± 4.5%, respectively. Besides, the inhibition constant (Ki) came to 371 ± 86.1 µM at Cathepsin V [3] (mean ± SD (n = 2)) and 635 ± 167 µM in experiment [4] (mean ± SD (n = 2)).

On to `O=C(NCc1ccc(F)cc1)NCC1CCN(C(=O)Oc2ccccc2)CC1` [Compound 41], for which the inhibition at 50 µM at Cathepsin V [1] turned out to be 17.7 ± 6.1%. Further, the inhibition at 50 µM in experiment [2] worked out at 4.2 ± 0.9%. Also, at Cathepsin V [3] (mean ± SD (n = 2)), the “Cathepsin V Ki′ (µM)” value is given as 612.5 ± 23.9^e µM and the affinity, expressed as Ki, was 612 ± 23.9 µM. In addition, in experiment [4] (mean ± SD (n = 2)), the “Cathepsin L Ki (µM)” value is given as “n.i.^g” and the “Cathepsin L Ki′ (µM)” value was “n.i.^g”.

For `Cc1nc(C2OC2C(=O)c2ccccc2OCc2ccccc2)cs1` (stereo not drawn) [Compound 39], the figures for the inhibition at 50 µM (at Cathepsin V [1]; in experiment [2]) were 17.1 ± 7.2% and 6.1 ± 0.7%, respectively. Further, the inhibition constant (Ki) on Cathepsin V [3] (mean ± SD (n = 2)) worked out at 403 ± 79.7 µM; in experiment [4] (mean ± SD (n = 2)), 726 ± 142 µM. In addition, in experiment [4] (mean ± SD (n = 2)), the “Cathepsin L Ki′ (µM)” value is 725.7 ± 142.3^e µM.

On to `Cc1cc(OCc2ccccc2)c(C(=O)C2OC2c2csc(-c3ccccc3)n2)cc1C` (stereo not drawn) [Compound 49], for which the inhibition at 50 µM turned out to be 22.9 ± 1% at Cathepsin V [1] and 12.9 ± 0.5% in experiment [2]. In addition, the Ki on Cathepsin V [3] (mean ± SD (n = 2)) was 303 ± 11.3 µM; in experiment [4] (mean ± SD (n = 2)), 546 ± 114 µM.

Take `CC(C)C[C@H](NC(=O)[C@H]1O[C@@H]1C(=O)O)C(=O)NCCCCN=C(N)N` [Compound E-64, reference compound]: the “binding reversibility: cathepsin V activity after 2 h incubation and 100-fold rapid dilution” value at Cathepsin V [5] is “remained inhibited”.

Take `O=C(c1ccccc1OCc1ccccc1)C1OC1c1csc(-c2ccccc2)n1` (stereo not drawn) [Compound 40, (2-(Benzyloxy)phenyl)(3-(2-phenylthiazol-4-yl)oxiran-2-yl)methanone]: the inhibition at 50 µM at Cathepsin V [1] amounted to 27.6 ± 8.7%. Also, the inhibition at 50 µM in experiment [2] was found to be 12.4 ± 0.7%. On Cathepsin V [3], the “mode of inhibition of cathepsin V” value is “uncompetitive” and the “fold lower inhibition constant for cathepsin V than cathepsin L” value was 21 fold. Also, at Cathepsin V [3] (mean ± SD (n = 2)), the “Cathepsin V Ki′” value amounted to 21.2 ± 2.0 µM and the “Cathepsin V Ki′ (µM)” value is 21.2 ± 2.0^f µM. For the same compound, the “mode of inhibition of cathepsin L” value in experiment [4] is given as “competitive”. Moreover, in experiment [4] (mean ± SD (n = 2)), the inhibitory constant (Ki) is 454 ± 69.1 µM. Moreover, the “binding reversibility: cathepsin V activity after 2 h incubation and 100-fold rapid dilution” value on Cathepsin V [5] is given as “reversible; also recorded: restored”.

Source of the values: publication PMC9459403, “New inhibitors of cathepsin V impair tumor cell proliferation and elastin degradation and increase immune cell cytotoxicity” (Computational and Structural Biotechnology Journal, 2022).
